In patent publication US7776888B2, “Herbicides” (Syngenta Crop Protection, Inc., priority 2002, dated 2010):

How the values were obtained:
Format in all cases: in vivo
Amaranthus [1] = assay: Pre-emergence herbicidal action (Example B1); conditions: 250 gr/ha, sprayed immediately after sowing, evaluated after 3 weeks; scale of ten ratings 10=total damage, 0=no action
Excerpt: (§1) Monocotyledonous and dicotyledonous test plants are sown in standard soil in plastic pots. Immediately after sowing, the test compounds, in the form of an aqueous suspension (prepared from a 25% wettable powder (Example F3, b) according to WO 97/34485) or in the form of an emulsion (prepared from a 25% emulsifiable concentrate (Example F1, c)), are applied by spraying in a concentration corresponding to 125 g or 250 g of active ingredient/ha (500 liters of water/ha). The test plants are then grown in a greenhouse under optimum conditions. After a test duration of 3 weeks, the test is evaluated in accordance with a scale of ten ratings (10=total damage, 0=no action). Ratings of from 10 to 6 (especially from 10 to 8) indicate good to very good herbicidal action.

Abutilon = assay: Pre-emergence herbicidal action (Example B1); conditions: 250 gr/ha, sprayed immediately after sowing, evaluated after 3 weeks; scale of ten ratings 10=total damage, 0=no action
Excerpt: as §1

Echinochloa = assay: Pre-emergence herbicidal action (Example B1); conditions: 250 gr/ha, sprayed immediately after sowing, evaluated after 3 weeks; scale of ten ratings 10=total damage, 0=no action
Excerpt: as §1

Panicum = assay: Pre-emergence herbicidal action (Example B1); conditions: 250 gr/ha, sprayed immediately after sowing, evaluated after 3 weeks; scale of ten ratings 10=total damage, 0=no action
Excerpt: as §1

Chenopodium [2] = assay: Pre-emergence herbicidal action (Example B1); conditions: 250 gr/ha, sprayed immediately after sowing, evaluated after 3 weeks; scale of ten ratings 10=total damage, 0=no action
Excerpt: as §1

Kochia = assay: Pre-emergence herbicidal action (Example B1); conditions: 250 gr/ha, sprayed immediately after sowing, evaluated after 3 weeks; scale of ten ratings 10=total damage, 0=no action
Excerpt: as §1

Amaranthus [3] = assay: Post-emergence herbicidal action (Example B2); conditions: 250 gr/ha, sprayed at 4- to 6-leaf stage, evaluated after about 18 days; scale 10=total damage, 0=no action
Procedure: (§2) In a greenhouse, monocotyledonous and dicotyledonous test plants are grown in standard soil in plastic pots and at the 4- to 6-leaf stage are sprayed with an aqueous suspension of the test compounds of formula I prepared from a 25% wettable powder (Example F3, b) according to WO 97/34485) or with an emulsion of the test compounds of formula I prepared from a 25% emulsifiable concentrate (Example F1, c) according to WO 97/34485), in a concentration corresponding to 125 g or 250 g of active ingredient/ha (500 liters of water/ha). The test plants are then grown on in a greenhouse under optimum conditions. After a test duration of about 18 days, the test is evaluated in accordance with a scale of ten ratings (10=total damage, 0=no action). Ratings of from 10 to 6 (especially from 10 to 7) indicate good to very good herbicidal action.

Stellaria = assay: Post-emergence herbicidal action (Example B2); conditions: 250 gr/ha, sprayed at 4- to 6-leaf stage, evaluated after about 18 days; scale 10=total damage, 0=no action
Procedure: as §2

Chenopodium [4] = assay: Post-emergence herbicidal action (Example B2); conditions: 250 gr/ha, sprayed at 4- to 6-leaf stage, evaluated after about 18 days; scale 10=total damage, 0=no action
Procedure: as §2

Ipomea = assay: Post-emergence herbicidal action (Example B2); conditions: 250 gr/ha, sprayed at 4- to 6-leaf stage, evaluated after about 18 days; scale 10=total damage, 0=no action
Procedure: as §2

Galium = assay: Comparison test with prior art compound, post-emergence herbicidal action (Example B3); conditions: 15 gr/ha, rating scale 10=total damage, 0=no action
Procedure: (§3) […] The test plants are then grown on in a greenhouse under optimum conditions. After a test duration of about 18 days, the test is evaluated in accordance with a scale of ten ratings (10=total damage, 0=no action). Ratings of from 10 to 6 (especially from 10 to 7) indicate good to very good herbicidal action. […] Examples of the good herbicidal action of the compounds are given in Table B2: The post-emergence herbicidal action of compound No. 1.0411 according to the invention is compared with compound “A” from WO 01/94339:

Polygonum = assay: as above; conditions: 15 gr/ha, rating scale 10=total damage, 0=no action
Procedure: as §3

Sinapis = assay: as above; conditions: 15 gr/ha, rating scale 10=total damage, 0=no action
Procedure: as §3

Brachiaria = assay: as above; conditions: 15 gr/ha, rating scale 10=total damage, 0=no action
Procedure: as §3

Rottboelia = assay: as above; conditions: 15 gr/ha, rating scale 10=total damage, 0=no action
Procedure: as §3

Sida = assay: as above; conditions: 15 gr/ha, rating scale 10=total damage, 0=no action
Procedure: as §3

weeds = assay: Comparison test post-emergence (Example B3), overall; conditions: rate of application of 15 g/ha
Excerpt: This enhanced action was not to be expected in view of the structural similarity of the compounds.

Compound | Pre-emergence herbicidal action: Amaranthus (Amaranthus [1]) | Pre-emergence herbicidal action: Abutilon (Abutilon) | Pre-emergence herbicidal action: Echinochloa (Echinochloa) | Pre-emergence herbicidal action: Panicum (Panicum) | Pre-emergence herbicidal action: Chenopodium (Chenopodium [2]) | Pre-emergence herbicidal action: Kochia (Kochia) | Post-emergence herbicidal action: Amaranthus (Amaranthus [3]) | Post-emergence herbicidal action: Stellaria (Stellaria) | Post-emergence herbicidal action: Chenopodium (Chenopodium [4]) | Post-emergence herbicidal action: Ipomea (Ipomea) | Post-emergence action: Galium (Galium) | Post-emergence action: Polygonum (Polygonum) | Post-emergence action: Sinapis (Sinapis) | Post-emergence action: Brachiaria (Brachiaria) | Post-emergence action: Rottboelia (Rottboelia) | Post-emergence action: Sida (Sida) | herbicidal action on the weeds compared with compound A (in words) (weeds)
COCCOCc1nc(C(F)(F)F)ccc1C(=O)C1=C(O)C2(C)C=CC(C)(O2)C1=O (stereo not shown) [1.0301] | 8 | 7 | 7 | 7 | 9 | 8 | 8 | 8 | 8 | 8 | – | – | – | – | – | – | –
COCCOCc1nc(C(F)(F)F)ccc1C(=O)C1=C(O)C2C=CC(C2)C1=O (stereo not shown) [1.0411] | 10 | 10 | 9 | 10 | 10 | 10 | 9 | 9 | 10 | 10 | 6 | 8 | 8 | 10 | 3 | 8 | considerably better herbicidal action
Cc1nc(C(F)(F)F)ccc1C(=O)C1=C(O)C2C=CC(C1=O)C21CC1 (stereo not shown) [1.1153] | – | – | – | – | – | – | 7 | 10 | 8 | 8 | – | – | – | – | – | – | –
COCCOCc1nc(C(F)(F)F)ccc1C(=O)C1C(=O)C2CCC(C2)C1=O (stereo not shown) [A, reference compound] | – | – | – | – | – | – | – | – | – | – | 5 | 5 | 6 | 4 | 0 | 7 | –
